Reference: PMC8743659, “C1632 suppresses the migration and proliferation of non‐small‐cell lung cancer cells involving LIN28 and FGFR1 pathway” (Journal of Cellular and Molecular Medicine, 2021)
Entries after “also recorded” stand apart in the source; their conditions may differ. Like-named read-outs stand apart in the source and are kept apart here.

What was measured:
[1] = Tissue distribution study; assay type: in vivo, mice; conditions: mouse, 20 mg/kg
Method: (§1) Agilent 1290 UHPLC system and 6420 series Triple‐Quadrupole Tandem Mass Spectrometer (Agilent Corporation) maintained at 35°C with a ZORBAX Eclipse Plus C18 column (1.8 μm, 2.1 × 50 mm). The mobile phase was a gradient elution program consisting of solvent A with solvent B at a flow rate of 0.4 ml/min. Mobile phase A was 0.1% formic acid in water (v/v), and mobile phase B was acetonitrile. The optimal gradient elution program was as follows: 0–0.5 min, linear from 80% to 5% A; 0.5–1.5 min, 5% A; 1.5–1.6 min, linear from 5% to 80% A. The post‐time was 1.3 min for equilibration of the column and the total runtime was 1.8 min. The mass spectrometer was acquired in an ESI‐positive mode with multiple reaction monitoring (MRM). Instrument control and data acquisition were performed on the MassHunter Agilent Software (version B.07.00).
(§2) The desolation gas (nitrogen) flow was set to 10 L/h: the capillary voltage: 4000 V; nebulizing gas and drying gas (both nitrogen): 45 psi and 350°C, respectively. The MRM mode with m/z 282.2→76.9 for C1632 and m/z 282.1→194.0 for IS was used for quantitative analysis.
Twenty‐four mice were randomly divided into four groups (six mice for each group, one group for each time point) and received 20 mg/kg […] of C1632 by oral administration. The mice were euthanized by decapitation at 0 (blank group), 0.25, 2 and 6 h after C1632 was given. Tissues were collected and washed with normal saline, then homogenized and subjected to sample preparation. Subsequently, the concentration of C1632 was determined by UHPLC‐MS/MS.

[2] = Pharmacokinetic study, plasma by UHPLC-MS/MS; assay type: in vivo, Sprague-Dawley (SD) rats; conditions: for MRT last: read-out: MRT(0-t); for half-life: read-out: t1/2z (converted)
Method: as §1, §2
Male SD rats were starved for 12 h before the experiment. But, tap water was available ad libitum. C1632 was administered orally or intravenously at the dose of 20 mg/kg (p.o.), 4 mg/kg (i.v.), respectively (n = 6). Blood samples were collected into heparinized polythene tubes 0.083, 0.25, 0.5, 1, 2, 4, 6, 9, 12, 24 h after dosing. As followed, the samples were centrifuged at 14,954 g for 10 min. Add acetonitrile (400 µl) and IS (20 µl) into collected plasma samples (100 µl). Thereafter, the samples were vortexed for 2 min, followed by centrifugation at 14,954 g for 10 min. Remove the supernatants to 1.5 ml tube and the sample is ready for detection by established UHPLC‐MS/MS assay. The injection volume is 6 µl. The pharmacokinetic parameters were determined using DAS software (Version 3.0).

A549 cells [3] = assay: Annexin V/PI apoptosis assay; assay type: cell-based, human; conditions: A549, 15, 30 or 60 mg/L, 5 days
Method: (§3) Cells were seeded in 6 cm^2 dish with a density of 3.0 × 10^5 cells per dish and treated with C1632 with final concentration of 15, 30, and 60 mg/L or 0.01% DMSO for 5 days. Then the assay was performed following the protocol provided by the Annexin V/PI Apoptosis Kit (Sigma) and was assessed on a flow cytometer (BD FACSCalibur, BD Biosciences).

A549R cells [4] = assay: Annexin V/PI apoptosis assay; assay type: cell-based, human; conditions: A549R, 15, 30 or 60 mg/L, 5 days
Method: as §3

A549 cells [5] = assay: Colony formation assay; assay type: cell-based, human; conditions: A549, 15, 30 and 60 mg/L, dose-dependent
Method: (§4) First, cells were treated with indicated concentrations of C1632 or 0.01% DMSO for 5 days. Then these cells were separated into single cells that were directly used for cloning. During the process of cloning, C1632‐treated A549 or A549R cells were still maintained in DMEM plus 10% FBS medium containing the indicated concentration of C1632 (15, 30, and 60 mg/L), while the control group was cultured with 0.01% DMSO. Both culture media were changed for every 2 days until 10 days. The number of forming colonies in C1632 or 0.01% DMSO‐treated groups was counted and the images were taken.

A549R cells [6] = assay: Colony formation assay; assay type: cell-based, human; conditions: A549R, 15, 30 and 60 mg/L, dose-dependent; stronger than in A549
Method: as §4

[7] = tested on: focal adhesion kinase (FAK); assay: Western blot of p-FAK; assay type: cell-based, human; conditions: A549 and A549R cells, 5 days
Method: The total cell protein was extracted and denaturized at 95°C for 10 min. Samples were separated in SDS‐PAGE gel, then transferred to a PVDF membrane. Then this membrane was blocked with 5% non‐fat milk (solved in TBST) for 2.5 h at room temperature. Blots were probed with relevant primary antibodies against FGFR1 (CST), p‐FGFR1 (CST), MAPK (CST), p‐MAPK (CST), FAK (CST), p‐FAK (CST), MMP‐9 (CST), LIN28B (CST), GAPDH (CST), and β‐actin (proteintech) overnight at 4°C, respectively. Then the lanes were detected with HRP‐conjugated secondary antibodies and visualized using WESTAR SUPERNOVA kit (CYANAGEN).

A549 cells [8] = assay: Scratch-wound healing assay; assay type: cell-based, human; conditions: A549, 60 mg/L
Method: (§5) The cells scratch‐wound assay was performed as previous reported.[38] The cells were seeded in a 6‐well plate and then cultured in DMEM medium containing indicated concentration of C1632 or 0.01% DMSO for 5 days. A denuded area was created across the diameter of dish by a yellow tip as the cell density up to 95%. Then cells were maintained in a serum‐free medium throughout the test. Phase‐contrast images were taken at the indicate time by Nikon Ti microscope and analysed with Axiovision Rel.4.8 software.

A549R cells [9] = assay: Scratch-wound healing assay; assay type: cell-based, human; conditions: 60 mg/L, after 72 h, control 97%
Method: as §5

A549 cells [10] = assay: Cell cycle distribution analysis (flow cytometry); assay type: cell-based, human; conditions: A549, 15, 30 and 60 mg/L, 5 days, dose-dependent
Method: Cells were cultured in the absence or presence of 15, 30, and 60 mg/L of C1632 or 0.01% DMSO for 5 days, trypsinized, washed, and stained with propidium iodide before cell cycle distribution was assessed on a flow cytometer (BD FACSCalibur, BD Biosciences).

[11] = male, Sprague-Dawley, iv, rat plasma, i.v. 4 mg/kg
[12] = male, Sprague-Dawley, po, rat plasma, p.o. 20 mg/kg

Question: With CC(=O)N(C)c1cccc(-c2ccc3nnc(C)n3n2)c1 [C1632] as the compound, how does the “level of C1632 in the brain” value [1] read?
Answer: remained low

Question: What about the “tissues with the highest level of C1632” value ([1]; 0.25 h, followed by kidney, heart and spleen) of the same compound?
Answer: highest in the lung and liver

Question: And the Tmax ([1]; tissues (major organs), homogenized, oral administration, sampled at 0.25, 2 and 6 h, read-out: time of peak concentration in major organs)?
Answer: 0.25 h

Question: What about the AUC(0-t) [2, 11] of the same compound?
Answer: 4090 ± 1630 ng·h/mL

Question: And the Cmax [2, 11]?
Answer: 2070 ± 338 ng/mL

Question: What about the Tmax [2, 11] of the same compound?
Answer: 0.53 ± 0.74 h

Question: What about the MRT last [2, 11] of the same compound?
Answer: 1.57 ± 0.74 h

Question: What about the half-life [2, 11] of the same compound?
Answer: 1.14 ± 0.52 h

Question: And the AUC(0-t) [2, 12]?
Answer: 9100 ± 3830 ng·h/mL

Question: What about the Cmax [2, 12] of the same compound?
Answer: 4240 ± 2680 ng/mL

Question: What about the Tmax [2, 12] of the same compound?
Answer: 1.04 ± 0.78 h

Question: What about the CL/F ([2]; male, Sprague-Dawley, po, rat plasma, p.o. 20 mg/kg, read-out: CLz/F (converted)) of the same compound?
Answer: 46.2 mL/min/kg

Question: What about the MRT last [2, 12] of the same compound?
Answer: 1.88 ± 0.42 h

Question: And the Vd/F ([2]; male, Sprague-Dawley, po, rat plasma, p.o. 20 mg/kg, read-out: Vz/F)?
Answer: 4.54 ± 4.68 L/kg

Question: And the half-life [2, 12]?
Answer: 1.05 ± 0.6 h

Question: And the bioavailability ([2]; male, Sprague-Dawley, rat, plasma, oral, 20 mg/kg, rats, p.o. 20 mg/kg vs i.v. 4 mg/kg, read-out: F (bioavailability))?
Answer: 44.5%

Question: What about the “time of second peak of the plasma concentration-time curve” value ([2]; oral administration group, 20 mg/kg) of the same compound?
Answer: 1 h

Question: And the CLz/F ([2]; rat plasma, i.v. 4 mg/kg)?
Answer: 18.8 ± 8.5 mL/min/kg

Question: And the Vz/F ([2]; rat plasma, i.v. 4 mg/kg)?
Answer: 2.05 ± 1.66 L/kg

Question: What about the apoptosis (A549 cells [3]) of the same compound?
Answer: induces apoptosis

Question: What about the apoptosis (A549R cells [4]) of the same compound?
Answer: limited effects; also recorded: did not significantly increase

Question: What about the “formation of colony units” value (A549 cells [5]) of the same compound?
Answer: inhibited

Question: And the “formation of colony units” value (A549R cells [6])?
Answer: inhibited

Question: What about the “phosphorylation of FAK” value [7] of the same compound?
Answer: efficiently decreased

Question: And the migration rate (A549 cells [8])?
Answer: significant decrease

Question: And the “scratch covered by migrated cells” value (A549R cells [9])?
Answer: 60%

Question: What about the cell cycle distribution (A549 cells [10]) of the same compound?
Answer: arrested A549 and A549R cells at the G0/G1 phase
